Patent US7183112B2, “Uses for anti-malarial therapeutic agents” (APT Pharmaceuticals, LLC, priority 1999, dated 2007)
Values joined by “and” are separate entries in the source; they are usually repeats but may differ in a detail not shown here. Equal values may be shown once. “Also recorded” adds a separate entry of the source.

System: Ascaris-sensitized sheep
Assay: Antigen-induced changes in specific lung resistance (early and late responses), Examples 1-2
Format: in vivo
Settings: for Specific resistance, +1 HR % / Specific resistance, +1 HR Srl: 1 h post antigen; for Specific resistance, +2 HRS % / Specific resistance, +2 HRS Srl: 2 h post antigen; for Specific resistance, P-ASC % / Specific resistance, P-ASC Srl: immediately post Ascaris antigen; for Specific resistance, P-pl/dg % (immediate) / Specific resistance, P-pl/dg Srl (immediate): immediately post drug; for Specific resistance, P-pl/dg % (just before Ag) / Specific resistance, P-pl/dg Srl (just before Ag): post drug, just before antigen; for Specific resistance, +3 HRS % / Specific resistance, +3 HRS Srl: 3 h post antigen; for Specific resistance, +4 HRS % / Specific resistance, +4 HRS Srl: 4 h post antigen; for Specific resistance, +5 HRS % / Specific resistance, +5 HRS Srl: 5 h post antigen; for Specific resistance, +7 HRS % / Specific resistance, +7 HRS Srl: 7 h post antigen; for Specific resistance, +7.5 HRS % / Specific resistance, +7.5 HRS Srl: 7.5 h post antigen; for Specific resistance, +8 HRS % / Specific resistance, +8 HRS Srl: 8 h post antigen
Description: All procedures were approved by the Mount Sinai Medical Center Animal Research Committee, which is responsible for assuring the humane care and use of experimental animals.
Measurement of Airway Mechanics: The unsedated sheep were restrained in a cart in the prone position with their heads immobilized. After topical anesthesia of the nasal passages with 2% lidocaine solution, a balloon catheter was advanced through one nostril into the lower esophagus. The animals were […] with a cuffed endotracheal tube through the other nostril using a flexible fiberoptic bronchoscope as a guide. […] Pleural pressure was estimated with the esophageal balloon catheter (filled with one ml of air) which was positioned 5–10 cm from the gastroesophageal junction. […] Once the balloon was placed, it was secured so that it remained in position for the duration of the experiment. Lateral pressure in the trachea was-measured with a sidehole catheter (inner dimension, 2.5 mm) advanced through and positioned distal to the tip of the endotracheal tube. Transpulmonary pressure, the difference between tracheal and pleural pressure, was measured with a differential pressure transducer catheter system. For the measurement of pulmonary resistance (RL), the proximal end of the endotracheal tube was connected to a pneumotachograph (Fleisch No. 1; Dyna Sciences, Inc., Blue Bell, Pa.). […] The mean of at least five breaths, free of swallowing artifact, was used to obtain RL in cm H2O/L/s. Immediately after the measurement of RL, thoracic gas volume (Vtg) was measured in a constant-volume body plethysmograph to obtain specific lung resistance (SRL=RL×Vtg) in L×cm H2O/L/s.
Aerosol Delivery Systems: Aerosols of Ascaris suum extract (diluted 20:1 with phosphate buffered saline; 82,000 PNU/ml) were generated using a disposable medical nebulizer (Raindrop^R, Puritan Bennett), which produces an aerosol with a mass median aerodynamic diameter of 3.2 μm (geometric standard deviation, 1.9) as determined by a 7 stage Andersen cascade impactor. The output from the nebulizer was directed into a plastic T-piece, one end of which was connected to the inspiratory port of a Harvard respirator. […] The aerosol was delivered at a tidal volume of 500 ml and a rate of 20 breaths per minute for 20 minutes. Each sheep was challenged with an equivalent dose of antigen (400 breaths) in the control and drug trials. Carbachol aerosols were also generated with this same nebulizer system.
At 3 to 4 days before treatment was begun, baseline airway responsiveness, to aerosol carbachol (i.e., PC400) was determined and a baseline bronchial biopsy performed. […] The animals were treated two times a day for 3 days and then, on the fourth day, at 0.5 hours before antigen challenge and again at 4 hours after challenge. […] SRL was remeasured 0.5 h after treatment (just before challenge) and the animals were then challenged with antigen. SRL was then remeasured immediately after.
On the fourth day, they received an additional treatment one-half hour prior to antigen challenge.

[1] = Example 1, aerosol 30 mg/animal (0.78 mg/kg) twice a day, Mean
[2] = Example 1, aerosol 30 mg/animal (0.78 mg/kg) twice a day, individual sheep
[3] = Example 2, aerosol 40 mg b.i.d. (2 mg/kg/day)
[4] = Example 2, aerosol 40 mg b.i.d. (2 mg/kg/day), Mean of 2 sheep
[5] = Example 2, aerosol 40 mg b.i.d. (2 mg/kg/day), individual sheep
[6] = Example 2, aerosol 40 mg b.i.d. (2 mg/kg/day), 6 h post antigen, Mean of 2 sheep
[7] = Example 2, aerosol 40 mg b.i.d. (2 mg/kg/day), 6 h post antigen, individual sheep
[8] = Example 2, aerosol 40 mg b.i.d. (2 mg/kg/day), +6 HRS, individual sheep
[9] = inhaled (nebulized), summary of animal studies

Compound: CCN(CCO)CCCC(C)Nc1ccnc2cc(Cl)ccc12 (centres unmarked) [HCQ, hydroxychloroquine]
- Specific resistance, +1 HR % [1]: 38%
- Specific resistance, +1 HR Srl [1]: 1.39 L×cm H2O/L/s
- Specific resistance, +1 HR % [2]: 32% and 43% and 30%
- Specific resistance, +1 HR Srl [2]: 1.35 L×cm H2O/L/s and 1.49 L×cm H2O/L/s
- Specific resistance, +2 HRS % [1]: 42%
- Specific resistance, +2 HRS Srl [1]: 1.44 L×cm H2O/L/s
- Specific resistance, +2 HRS % [2]: 11% and 74% and 4%
- Specific resistance, +2 HRS Srl [2]: 1.13 L×cm H2O/L/s and 1.74 L×cm H2O/L/s and 1.2 L×cm H2O/L/s
- Specific resistance, P-ASC % [1]: 95%
- Specific resistance, P-ASC Srl [1]: 1.97 L×cm H2O/L/s
- Specific resistance, P-ASC % [2]: 140% and 49% and 189%
- Specific resistance, P-ASC Srl [2]: 2.45 L×cm H2O/L/s and 1.49 L×cm H2O/L/s and 3.32 L×cm H2O/L/s
- Specific resistance, P-pl/dg % (immediate) [1]: 10%
- Specific resistance, P-pl/dg Srl (immediate) [1]: 1.11 L×cm H2O/L/s
- Specific resistance, P-pl/dg % (immediate) [2]: 18% and 2% and 19%
- Specific resistance, P-pl/dg Srl (immediate) [2]: 1.20 L×cm H2O/L/s and 1.02 L×cm H2O/L/s and 1.37 L×cm H2O/L/s
- Specific resistance, P-pl/dg % (just before Ag) [1]: 2%
- Specific resistance, P-pl/dg Srl (just before Ag) [1]: 1.03 L×cm H2O/L/s
- Specific resistance, P-pl/dg % (just before Ag) [2]: 9% and −5% and −2%
- Specific resistance, P-pl/dg Srl (just before Ag) [2]: 1.11 L×cm H2O/L/s and 0.95 L×cm H2O/L/s and 1.13 L×cm H2O/L/s
- effect on acute reactions [3]: not inhibited
- effect on late phase asthmatic reactions [3]: virtually completely blocked
- Specific resistance, +1 HR % [4]: 132%
- Specific resistance, +1 HR Srl [4]: 2.43 L×cm H2O/L/s
- Specific resistance, +1 HR % [5]: 171% and 93%
- Specific resistance, +1 HR Srl [5]: 2.76 L×cm H2O/L/s and 2.10 L×cm H2O/L/s
- Specific resistance, +2 HRS % [4]: 69%
- Specific resistance, +2 HRS Srl [4]: 1.74 L×cm H2O/L/s
- Specific resistance, +2 HRS % [5]: 102% and 36%
- Specific resistance, +2 HRS Srl [5]: 2.06 L×cm H2O/L/s and 1.48 L×cm H2O/L/s
- Specific resistance, +3 HRS % [4]: 50%
- Specific resistance, +3 HRS Srl [4]: 1.58 L×cm H2O/L/s
- Specific resistance, +3 HRS % [5]: 54% and 46%
- Specific resistance, +3 HRS Srl [5]: 1.57 L×cm H2O/L/s and 1.59 L×cm H2O/L/s
- Specific resistance, +4 HRS % [4]: 19%
- Specific resistance, +4 HRS Srl [4]: 1.26 L×cm H2O/L/s
- Specific resistance, +4 HRS % [5]: 10% and 28%
- Specific resistance, +4 HRS Srl [5]: 1.12 L×cm H2O/L/s and 1.39 L×cm H2O/L/s
- Specific resistance, +5 HRS % [4]: 17%
- Specific resistance, +5 HRS Srl [4]: 1.23 L×cm H2O/L/s
- Specific resistance, +5 HRS % [5]: 36% and −2%
- Specific resistance, +5 HRS Srl [5]: 1.39 L×cm H2O/L/s and 1.07 L×cm H2O/L/s
- Specific resistance, +6 HRS % [6]: 18%
- Specific resistance, +6 HRS Srl [6]: 1.24 L×cm H2O/L/s
- Specific resistance, +6 HRS % [7]: 20% and 16%
- Specific resistance, +6 HRS Srl [7]: 1.22 L×cm H2O/L/s and 1.26 L×cm H2O/L/s
- Specific resistance, +7 HRS % [4]: 16%
- Specific resistance, +7 HRS Srl [4]: 1.23 L×cm H2O/L/s
- Specific resistance, +7 HRS % [5]: 20% and 13%
- Specific resistance, +7 HRS Srl [5]: 1.22 L×cm H2O/L/s and 1.23 L×cm H2O/L/s
- Specific resistance, +7.5 HRS % [4]: 35%
- Specific resistance, +7.5 HRS Srl [4]: 1.42 L×cm H2O/L/s
- Specific resistance, +7.5 HRS % [5]: 50% and 19%
- Specific resistance, +7.5 HRS Srl [5]: 1.53 L×cm H2O/L/s and 1.30 L×cm H2O/L/s
- Specific resistance, +8 HRS % [4]: 20%
- Specific resistance, +8 HRS Srl [4]: 1.27 L×cm H2O/L/s
- Specific resistance, +8 HRS % [5]: 22% and 18%
- Specific resistance, +8 HRS Srl [5]: 1.24 L×cm H2O/L/s and 1.29 L×cm H2O/L/s
- Specific resistance, +6 HRS Srl (Example 2, aerosol 40 mg b.i.d. (2 mg/kg/day), +6 HRS, Mean of 2 sheep): 1.21 L×cm H2O/L/s
- Specific resistance, +6 HRS % [8]: 8% and 21%
- Specific resistance, +6 HRS Srl [8]: 1.10 L×cm H2O/L/s and 1.32 L×cm H2O/L/s
- Specific resistance, P-ASC % [4]: 238%
- Specific resistance, P-ASC Srl [4]: 3.58 L×cm H2O/L/s
- Specific resistance, P-ASC % [5]: 196% and 280%
- Specific resistance, P-ASC Srl [5]: 3.02 L×cm H2O/L/s and 4.14 L×cm H2O/L/s
- Specific resistance, P-pl/dg % (immediate) [4]: 3%
- Specific resistance, P-pl/dg Srl (immediate) [4]: 1.08 L×cm H2O/L/s
- Specific resistance, P-pl/dg % (immediate) [5]: 13% and −7%
- Specific resistance, P-pl/dg Srl (immediate) [5]: 1.15 L×cm H2O/L/s and 1.01 L×cm H2O/L/s
- Specific resistance, P-pl/dg % (just before Ag) [4]: 1%
- Specific resistance, P-pl/dg Srl (just before Ag) [4]: 1.07 L×cm H2O/L/s
- Specific resistance, P-pl/dg % (just before Ag) [5]: −6% and 7%%
- Specific resistance, P-pl/dg Srl (just before Ag) [5]: 0.96 L×cm H2O/L/s and 1.17 L×cm H2O/L/s
- Specific resistance, +6 HRS % (Example 2, aerosol 40 mg b.i.d. (2 mg/kg/day), second +6 HRS column (text: at 6.5 hours), Mean of 2 sheep): 14%
- irritant effects / tolerability of aerosolized HCQ (airway resistance after inhalation) (aerosol, sheep, specific resistance pre- and immediately following application): well tolerated; also recorded: does not cause any major irritant effects
- effect on immediate allergic-mediated bronchostrictive responses [9]: partially blocks
- effect on late-phase responses (four to 12 hours post-antigen challenge) [9]: virtually eliminates
